Source: ChEMBL document CHEMBL1201862, “PubChem BioAssay data set” (2004)
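Assay format: 96-well plates, 48-hour exposure. Abbreviation: GI50, concentration required for 50% inhibition of growth.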 Calls of active or inactive are those of the source. No stated cut-off is given here; in the data, active = GI50 up to about 1.1 µM and inactive = higher.

Tests used:
Test in all cases: growth of human tumour cells (NCI), 48 h
NCI-H226 = system: NCI-H226
NCI-H23 = system: NCI-H23
TK-10 = system: TK-10
UACC-257 = system: UACC-257
KM12 = system: KM12
OVCAR-3 = system: OVCAR-3
SK-MEL-28 = system: SK-MEL-28
HCT-116 = system: HCT-116
RXF 393 = system: RXF 393
BT-549 = system: BT-549
SK-OV-3 = system: SK-OV-3
786-0 = system: 786-0
HOP-92 = system: HOP-92
SNB-75 = system: SNB-75
OVCAR-4 = system: OVCAR-4
SNB-19 = system: SNB-19
SN12C = system: SN12C
HL-60 = system: HL-60
SR = system: SR
MDA-N = system: MDA-N
MOLT-4 = system: MOLT-4
UO-31 = system: UO-31
NCI-H522 = system: NCI-H522
SK-MEL-2 = system: SK-MEL-2
SF-295 = system: SF-295
NCI-H460 = system: NCI-H460
HOP-62 = system: HOP-62
A498 = system: A498
CAKI-1 = system: CAKI-1
MDA-MB-435 = system: MDA-MB-435
CCRF-CEM = system: CCRF-CEM
EKVX = system: EKVX
NCI/ADR-RES = system: NCI/ADR-RES
SF-268 = system: SF-268
OVCAR-5 = system: OVCAR-5
MCF7 = system: MCF7
SW-620 = system: SW-620
DU-145 = system: DU-145
SK-MEL-5 = system: SK-MEL-5
K562 = system: K562
U-251 = system: U-251
A549 = system: A549
UACC-62 = system: UACC-62
MDA-MB-231 = system: MDA-MB-231
COLO 205 = system: COLO 205
IGROV-1 = system: IGROV-1
LOX IMVI = system: LOX IMVI
M14 = system: M14
PC-3 = system: PC-3
ACHN = system: ACHN
HCC 2998 = system: HCC 2998
Hs-578T = system: Hs-578T
SF-539 = system: SF-539
HT-29 = system: HT-29
RPMI-8226 = system: RPMI-8226
OVCAR-8 = system: OVCAR-8
Malme-3M = system: Malme-3M
HCT-15 = system: HCT-15

Measured: GI50

C=C(Cl)/C(=C\Cl)CCC(Br)C(C)C (stereo not given)
inactive: NCI-H226 > 100 µM | NCI-H23 > 100 µM | TK-10 > 100 µM | UACC-257 58.5 µM | KM12 > 100 µM | OVCAR-3 > 100 µM | SK-MEL-28 78.5 µM | HCT-116 > 100 µM | RXF 393 77.3 µM | BT-549 > 100 µM | SK-OV-3 > 100 µM | 786-0 60.1 µM | HOP-92 > 100 µM | SNB-75 > 100 µM | OVCAR-4 29.2 µM | SNB-19 > 100 µM | SN12C > 100 µM | HL-60 63.5 µM | SR > 100 µM | MDA-N 41 µM | MOLT-4 37.9 µM | UO-31 78.2 µM | NCI-H522 21.1 µM | SK-MEL-2 > 100 µM | SF-295 > 100 µM | NCI-H460 > 100 µM | HOP-62 > 100 µM | A498 > 100 µM | CAKI-1 > 100 µM | MDA-MB-435 81.5 µM | CCRF-CEM 44.5 µM | EKVX > 100 µM | NCI/ADR-RES > 100 µM | SF-268 > 100 µM | OVCAR-5 > 100 µM | MCF7 48.9 µM | SW-620 19.5 µM | DU-145 > 100 µM | SK-MEL-5 > 100 µM | K562 36.2 µM | U-251 > 100 µM | A549 > 100 µM | UACC-62 51.8 µM | MDA-MB-231 24.9 µM | COLO 205 > 100 µM | IGROV-1 > 100 µM | LOX IMVI 15.8 µM | M14 64.3 µM | PC-3 > 100 µM | ACHN > 100 µM | HCC 2998 > 100 µM | Hs-578T > 100 µM | SF-539 > 100 µM | HT-29 > 100 µM | RPMI-8226 > 100 µM

O=C(CNc1ccccn1)Nn1cnc2ccc(S(=O)(=O)Nc3ccccn3)cc2c1=O
> 100 µM: HCT-15
inactive: OVCAR-8 > 100 µM | NCI-H226 > 100 µM | NCI-H23 > 100 µM | TK-10 > 100 µM | UACC-257 > 100 µM | KM12 > 100 µM | OVCAR-3 > 100 µM | SK-MEL-28 > 100 µM | HCT-116 > 100 µM | BT-549 > 100 µM | SK-OV-3 > 100 µM | 786-0 > 100 µM | HOP-92 > 100 µM | SNB-75 > 100 µM | OVCAR-4 > 100 µM | SNB-19 > 100 µM | SN12C > 100 µM | HL-60 > 100 µM | Malme-3M > 100 µM | SR > 100 µM | MDA-N > 100 µM | MOLT-4 > 100 µM | UO-31 > 100 µM | NCI-H522 > 100 µM | SK-MEL-2 > 100 µM | SF-295 > 100 µM | NCI-H460 > 100 µM | HOP-62 > 100 µM | CAKI-1 > 100 µM | MDA-MB-435 > 100 µM | CCRF-CEM > 100 µM | EKVX > 100 µM | NCI/ADR-RES > 100 µM | SF-268 > 100 µM | OVCAR-5 > 100 µM | MCF7 > 100 µM | SW-620 > 100 µM | DU-145 > 100 µM | K562 > 100 µM | U-251 > 100 µM | A549 > 100 µM | UACC-62 > 100 µM | MDA-MB-231 > 100 µM | COLO 205 > 100 µM | IGROV-1 70.1 µM | LOX IMVI > 100 µM | M14 > 100 µM | PC-3 > 100 µM | ACHN > 100 µM | HCC 2998 > 100 µM | Hs-578T > 100 µM | SF-539 > 100 µM | HT-29 > 100 µM | RPMI-8226 > 100 µM
